Values joined by “and” are separate entries in the source; they are usually repeats but may differ in a detail not shown here. Equal entries are not always repeated.
How the values were obtained:
ferri-Exochelin 758SM [1] = experiment: Capacity to remove iron from a different Exochelin species (Ferri-Exochelin 758SM); type: binding; settings: for % Iron-Saturation 0 h / % of Calculated Iron-Saturation at Equilibrium 0 h / % of Calculated Iron-Saturation at Equilibrium 1 h / % Iron-Saturation 1 h: Table 1; for % Iron-Saturation 0 h / % Iron-Saturation 0 hour / % Iron-Saturation 1 hour / % Iron-Saturation 1 h: mixed with ferri-Exochelin 758SM
Protocol: C. Capacity to Remove Iron from a Different Exochelin Species. To assess the affinity of the synthetic desferri-Exochelin 772SM(R) for iron, its capacity to remove iron from a different Exochelin species, ferri-Exochelin 758SM, was evaluated. The capacity of synthetic and native desferri-Exochelin 772SM(R) to remove iron from ferri-Exochelin 758SM was also evaluated and compared. Either native or synthetic desferri-Exochelin 772SM(R) were independently mixed with ferri-Exochelin 758SM. The amount of iron acquired in 1 hour by the desferri-Exochelins was assayed by subjecting the Exochelin to reverse-phase HPLC on a phenyl column, as described above, and the area under the 450 nm absorbance peak was measured. The amount of iron-Exochelin was then calculated using a conversion factor derived from assaying known amounts of ferri-Exochelin 772SM(R).
C. Capacity to Remove Iron from a Different Exochelin Species. To assess the affinity of the synthetic desferri-Exochelin 772SM(S) for iron, its capacity to remove iron from a different exochelin species, ferri-Exochelin 758SM was evaluated. The capacity of synthetic desferri-Exochelin 772SM(S) and native desferri-Exochelin 772SM(R) to remove iron from ferri-Exochelin 758SM was also evaluated and compared. Either synthetic desferri-Exochelin 772SM(S) or native desferri-Exochelin 772SM(R) was mixed with ferri-Exochelin 758SM. The amount of iron acquired by the desferri-exochelins after 1 hour was assayed by subjecting the molecule to reverse-phase HPLC on a phenyl column, as described above, and the area under the 450 nm absorbance peak was measured. The amount of iron-exochelin was then calculated using a conversion factor derived from assaying known amounts of ferri-Exochelin 772SM(R) and ferri-Exochelin 772SM(S).

ferri-Exochelin 758SM [2] = experiment: Capacity to remove iron from Ferri-Exochelin 758SM in the same vial (772SM(R) vs 772SM(S)); type: binding; settings: Table 3, 772SM(R), 772SM(S) and 758SM in the same vial
Protocol: To further assess the relative affinities of the stereoisomers desferri-Exochelin 772SM(R) and 772SM(S) for iron, their capacity to remove iron from a different exochelin species in the same vial were compared.
In the experiment,15.6 μg of 1.1% iron-saturated synthetic Exochelin 772SM(R) and 17.4 μg of 1.0% iron-saturated synthetic Exochelin 772SM(S) was mixed with 13.5 μg of 100% iron-saturated native Exochelin 758SM.

[3] = target: T1, 40% iron-saturated human transferrin (Homo sapiens, UniProt P02787); experiment: Capacity to remove iron from 40% iron-saturated human transferrin; type: biochemical; settings: Fe3+:desferri-Exochelin 10:1, PBS pH 7.4
T1 sequence (P02787 20-698): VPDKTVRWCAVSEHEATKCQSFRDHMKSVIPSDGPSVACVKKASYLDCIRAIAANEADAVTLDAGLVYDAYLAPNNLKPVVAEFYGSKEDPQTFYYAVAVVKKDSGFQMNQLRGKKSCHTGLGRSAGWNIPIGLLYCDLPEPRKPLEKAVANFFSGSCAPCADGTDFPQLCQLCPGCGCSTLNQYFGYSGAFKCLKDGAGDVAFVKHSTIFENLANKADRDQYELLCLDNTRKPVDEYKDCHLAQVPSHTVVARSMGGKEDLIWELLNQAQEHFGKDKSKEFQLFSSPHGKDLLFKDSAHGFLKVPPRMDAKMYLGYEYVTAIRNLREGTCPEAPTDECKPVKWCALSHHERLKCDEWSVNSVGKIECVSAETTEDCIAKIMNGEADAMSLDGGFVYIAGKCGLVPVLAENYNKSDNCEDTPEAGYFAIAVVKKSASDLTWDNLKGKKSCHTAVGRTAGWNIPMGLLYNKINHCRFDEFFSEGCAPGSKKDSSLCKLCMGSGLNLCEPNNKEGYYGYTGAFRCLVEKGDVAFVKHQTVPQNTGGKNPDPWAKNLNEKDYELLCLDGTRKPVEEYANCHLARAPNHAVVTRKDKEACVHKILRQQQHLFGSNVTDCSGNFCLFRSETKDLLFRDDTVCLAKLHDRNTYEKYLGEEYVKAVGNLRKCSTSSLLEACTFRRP
Protocol: (§1) A. 40% Iron-Saturated Human Transferrin. To assess the capacity of the 3 different desferri-Exochelins to remove iron from 40% iron-saturated human transferrin, each of them was incubated for 1, 3, and 24 hours with 40% iron-saturated transferrin such that the ratio of Fe^3+: desferri-Exochelin equaled 10:1. The incubation was carried out in PBS, pH 7.4. Afterwards, the Exochelin and transferrin were separated from each other by centrifugation through a 10,000 dalton cut-off filter. The transferrin (mass 76,000 daltons) was completely excluded by this filter whereas 85% of the Exochelin (mass<1,000) was recovered in the filtrate. To determine the total amount of exochelin recovered, the exochelin in the filtrate was saturated with a 20:1 molar excess of ferric ammonium citrate and subjected to reverse-phase HPLC as described above. To determine the amount of iron-saturated Exochelin in the filtrate at each time point, the filtrate was subjected to reverse-phase HPLC without the addition of iron. The % iron-saturation was calculated as follows: [formula]

[4] = target: holo-transferrin (92% iron-saturated human transferrin) (Homo sapiens, UniProt P02787); experiment: Capacity to remove iron from holo-transferrin (92% iron-saturated human transferrin); type: biochemical; settings: Fe3+:desferri-Exochelin 10:1
Sequence of holo-transferrin (92% iron-saturated human transferrin) (P02787 20-698): as above
Protocol: as §1
B. Holo-Transferrin (92% Iron-Saturated Human Transferrin). To assess the capacity of the 3 different desferri-Exochelins to remove iron from holo-transferrin (92% iron-saturated human transferring, each of them was incubated for 1, 3, and 24 h with 92% iron-saturated transferrin such that the ratio of Fe^3+: desferri-Exochelin equaled 10:1, as in the aforementioned study with 40% iron-saturated transferrin. The % iron-saturation of the Exochelins was assayed as above.

[5] = target: human apotransferrin (<0.7% iron-saturated) (Homo sapiens, UniProt P02787); experiment: Control incubation with human apotransferrin (<0.7% iron-saturated); type: biochemical; settings: apotransferrin 38 mg/ml
Sequence of human apotransferrin (<0.7% iron-saturated) (P02787 20-698): as above
Protocol: as §1
C. Apotransferrin (<0.7% Iron-Saturated Human Transferrin). As a control, the three desferri-exochelins were incubated for 3 h and 24 h with human apotransferrin (<0.7% iron-saturated) at a concentration of 38 mg/ml, the same concentration of protein as in the study utilizing 92% iron-saturated transferrin in B above. None of the desferri-exochelins acquired appreciable amounts of iron (Table 6).

[6] = target: T1, 40% iron-saturated human transferrin; experiment: Capacity to remove iron from 40% iron-saturated human transferrin; type: biochemical; settings: Fe3+:desferri-Exochelin 10:1, PBS pH 7.4; remark: listed apart in the source
[7] = assuming comparable affinities for iron, 15.1 µg 772SM(R), Experiment I
[8] = assuming comparable affinities for iron, 15.8 µg 772SM(R), Experiment II
[9] = listed as Native Desferri-Exochelin 772SM(R)
[10] = listed as native desferri-exochelin 772SM(R)

Exochelin 758SM [Native 758SM, reference compound]
% Iron-Saturation 0 h (ferri-Exochelin 758SM [1]): 100%
% Iron-Saturation 0 hour (ferri-Exochelin 758SM [1]; Table 2, 0 hour): 100%
% Iron-Saturation 1 hour (ferri-Exochelin 758SM [1]; Table 2, with native desferri-Exochelin 772SM(R)): 61.7%
% Iron-Saturation 1 hour (ferri-Exochelin 758SM [1]; Table 2, with synthetic desferri-Exochelin 772SM(R)): 55.9%
% Iron-Saturation 1 hour (ferri-Exochelin 758SM [1]; Table 2, with synthetic desferri-Exochelin 772SM(S)): 54.1%
% Iron-Saturation 0 hour (ferri-Exochelin 758SM [2]; 0 hour): 100%
% Iron-Saturation 1 hour (ferri-Exochelin 758SM [2]; 1 hour): 40.0%

Exochelin 772SM(R) [Native 772SM(R), reference compound]
% of Calculated Iron-Saturation at Equilibrium 0 h (ferri-Exochelin 758SM [1]; [7]): 6.8%
% of Calculated Iron-Saturation at Equilibrium 0 h (ferri-Exochelin 758SM [1]; [8]): 5.0%
% Iron-Saturation 0 h (ferri-Exochelin 758SM [1]): 2.8%
% of Calculated Iron-Saturation at Equilibrium 1 h (ferri-Exochelin 758SM [1]; [7]): 85.8%
% of Calculated Iron-Saturation at Equilibrium 1 h (ferri-Exochelin 758SM [1]; [8]): 81.6%
% of Calculated Iron-Saturation at Equilibrium 1 h (ferri-Exochelin 758SM [1]; assuming comparable affinities for iron, listed as native Exochelin 772SM(R)): 85.8% and 81.6%
% Iron-Saturation 1 h (ferri-Exochelin 758SM [1]; 15.1 µg 772SM(R), Experiment I): 46.4%
% Iron-Saturation 1 h (ferri-Exochelin 758SM [1]; 15.8 µg 772SM(R), Experiment II): 45.6%
% Iron-Saturation 1 h (ferri-Exochelin 758SM [1]; listed as native Exochelin 772SM(R)): 46.4% and 45.6%
% of Calculated Iron-Saturation at Equilibrium 0 hour (ferri-Exochelin 758SM [1]; Table 2, 0 hour, assuming comparable affinities for iron): 5.4%
% Iron-Saturation 0 hour (ferri-Exochelin 758SM [1]; Table 2, 0 hour): 2.8%
% of Calculated Iron-Saturation at Equilibrium 1 hour (ferri-Exochelin 758SM [1]; Table 2, assuming comparable affinities for iron): 88.7%
% of Calculated Iron-Saturation at Equilibrium 1 hour (ferri-Exochelin 758SM [1]; Table 2, assuming comparable affinities for iron, listed as native Exochelin 772SM(R)): 88.7%
% Iron-Saturation 1 hour (ferri-Exochelin 758SM [1]; Table 2): 46.2%
Iron-Saturation 1 h ([3]; 1 h): 9.3%
Iron-Saturation 3 h ([3]; 3 h): 13.8%
Iron-Saturation 24 h [3, 9]: 34.0%
Iron-Saturation 24 h [3, 10]: 34.0%
Iron-Saturation 0 h ([4]; 0 h): 2.8%
Iron-Saturation 1 h ([4]; 1 h): 11.6%
Iron-Saturation 3 h ([4]; 3 h): 19.0%
Iron-Saturation 24 h [4, 9]: 54.1%
Iron-Saturation 24 h [4, 10]: 54.1%
Iron-Saturation 0 h ([5]; 0 h): 2.8%
Iron-Saturation 3 h ([5]; 3 h): 9.3%
Iron-Saturation 24 h ([5]; 24 h): 6.8%
Iron-Saturation 0 h [6]: 2.8%

Source: patent publication US6335443B1, “Chemical synthesis of exochelins” (Keystone Biomedical, Inc., priority 1998, dated 2002)
